# Data published in ChEMBL document CHEMBL4325840, “Design, synthesis and evaluation of novel hybrids between 4-anilinoquinazolines and substituted triazoles as potent cytotoxic agents” (Bioorg Med Chem Lett, 2018).
# Structures can show the parent of a compound that is named as a salt.
# How the values were obtained:
# SK-LU-1 [1] = test: Potency index, ratio of erlotinib hydrochloride IC50 to compound IC50 for human SK-LU-1 cells; type: functional
# KB [2] = test: Potency index, ratio of erlotinib hydrochloride IC50 to compound IC50 for human KB cells; type: functional
# HepG2 [3] = test: Potency index, ratio of erlotinib hydrochloride IC50 to compound IC50 for human HepG2 cells; type: functional
# HepG2 [4] = test: Cytotoxicity against human HepG2 cells after 3 days by MTT assay; type: functional, cell-based
# KB [5] = test: Cytotoxicity against human KB cells after 3 days by MTT assay; type: functional, cell-based
# SK-LU-1 [6] = test: Potency index, ratio of erlotinib IC50 to compound IC50 for human SK-LU-1 cells; type: functional
# KB [7] = test: Potency index, ratio of erlotinib IC50 to compound IC50 for human KB cells; type: functional
# HepG2 [8] = test: Potency index, ratio of erlotinib IC50 to compound IC50 for human HepG2 cells; type: functional
# SK-LU-1 [9] = test: Cytotoxicity against human SK-LU-1 cells after 3 days by MTT assay; type: functional, cell-based
Structure (SMILES),Ratio IC50 (SK-LU-1 [1]),Ratio IC50 (KB [2]),Ratio IC50 (HepG2 [3]),"IC50 (HepG2 [4]; Homo sapiens, HepG2, 72 h)","IC50 (KB [5]; Homo sapiens, KB, 72 h)",Ratio IC50 (SK-LU-1 [6]),Ratio IC50 (KB [7]),Ratio IC50 (HepG2 [8]),"IC50 (SK-LU-1 [9]; Homo sapiens, SK-LU-1, 72 h)",IC50 (HepG2 [4]; hepg2),IC50 (KB [5]; kb),IC50 (SK-LU-1 [9]; sk-lu-1)
N#Cc1cc(-n2cc(-c3cccc(Nc4ncnc5cc6c(cc45)OCCCO6)c3)nn2)ccc1C(F)(F)F,<=100,<=100,<=100,1.61 µM,1.49 µM,<=100,<=100,<=100,1.81 µM,,,
C#Cc1cccc(Nc2ncnc3cc4c(cc23)OCCO4)c1,<=100,<=100,<=100,2.84 µM,2.6 µM,<=100,<=100,<=100,3.36 µM,,,
C#Cc1cccc(Nc2ncnc3cc(OCCOC)c(OCCOC)cc23)c1 [ERLOTINIB HYDROCHLORIDE],,,,,,,,,,14.2 µM,49.6 µM,31.2 µM
O=[N+]([O-])c1cccc(-n2cc(-c3cccc(Nc4ncnc5cc6c(cc45)OCCCO6)c3)nn2)c1,,,,76.8 µM,53.2 µM,,,,230 µM,,,
C#Cc1cccc(Nc2ncnc3ccccc23)c1,<=100,<=100,<=100,4.16 µM,5.46 µM,<=100,<=100,<=100,4.16 µM,,,
C#Cc1cccc(Nc2ncnc3cc(OCCOC)c(OCCOC)cc23)c1 [ERLOTINIB],,,,,,,,,,,13 µM,99.8 µM
O=[N+]([O-])c1cccc(-n2cc(-c3cccc(Nc4ncnc5ccccc45)c3)nn2)c1,,,,287 µM,104 µM,,,,260 µM,,,
O=[N+]([O-])c1ccccc1-n1cc(-c2cccc(Nc3ncnc4cc5c(cc34)OCO5)c2)nn1,,,,207 µM,193 µM,,,,217 µM,,,
O=[N+]([O-])c1cccc(-n2cc(-c3cccc(Nc4ncnc5cc6c(cc45)OCCO6)c3)nn2)c1,<=100,<=100,<=100,0.88 µM,3.51 µM,<=100,<=100,<=100,5.67 µM,,,
O=[N+]([O-])c1ccc(-n2cc(-c3cccc(Nc4ncnc5cc6c(cc45)OCO6)c3)nn2)cc1,,,,11.3 µM,30.1 µM,,,,44.5 µM,,,
O=[N+]([O-])c1ccc(-n2cc(-c3cccc(Nc4ncnc5ccccc45)c3)nn2)cc1,<=100,<=100,<=100,8.11 µM,5.47 µM,<=100,<=100,<=100,9.16 µM,,,
O=[N+]([O-])c1ccc(-n2cc(-c3cccc(Nc4ncnc5cc6c(cc45)OCCO6)c3)nn2)cc1,,,,230 µM,79.1 µM,,,,54.8 µM,,,
C#Cc1cccc(Nc2ncnc3cc4c(cc23)OCCCO4)c1,,,,69.9 µM,54.8 µM,,,,80.7 µM,,,
O=[N+]([O-])c1cccc(-n2cc(-c3cccc(Nc4ncnc5cc6c(cc45)OCO6)c3)nn2)c1,<=100,<=100,<=100,6.88 µM,6.35 µM,<=100,<=100,<=100,6.66 µM,,,
N#Cc1cc(-n2cc(-c3cccc(Nc4ncnc5ccccc45)c3)nn2)ccc1C(F)(F)F,<=100,<=100,<=100,1.86 µM,1.46 µM,<=100,<=100,<=100,4.5 µM,,,
N#Cc1cc(-n2cc(-c3cccc(Nc4ncnc5cc6c(cc45)OCO6)c3)nn2)ccc1C(F)(F)F,<=100,<=100,<=100,6.1 µM,4.59 µM,<=100,<=100,<=100,27.5 µM,,,
O=[N+]([O-])c1ccccc1-n1cc(-c2cccc(Nc3ncnc4ccccc34)c2)nn1,<=100,<=100,<=100,4.64 µM,5.5 µM,<=100,<=100,<=100,4.76 µM,,,
O=[N+]([O-])c1ccccc1-n1cc(-c2cccc(Nc3ncnc4cc5c(cc34)OCCO5)c2)nn1,<=100,<=100,<=100,0.14 µM,0.04 µM,<=100,<=100,<=100,1.03 µM,,,
N#Cc1cc(-n2cc(-c3cccc(Nc4ncnc5cc6c(cc45)OCCO6)c3)nn2)ccc1C(F)(F)F,<=100,<=100,<=100,6.09 µM,0.27 µM,<=100,<=100,<=100,4.44 µM,,,
C#Cc1cccc(Nc2ncnc3cc4c(cc23)OCO4)c1,,,,26.2 µM,75.6 µM,,,,64.9 µM,,,
O=[N+]([O-])c1ccccc1-n1cc(-c2cccc(Nc3ncnc4cc5c(cc34)OCCCO5)c2)nn1,<=100,<=100,<=100,43.4 µM,20.4 µM,<=100,<=100,<=100,14.8 µM,,,
Cc1c2ccncc2c(C)c2c1[nH]c1ccccc12 [ELLIPTECINE],,,,2.72 µM,1.95 µM,,,,1.38 µM,,,
